{"source": "patent US20260275280A1", "about": "“DIRECTED DIFFERENTIATION PROTOCOLS TO DERIVE BONE FIDE SPINAL SENSORY INTERNEURONS” (THE REGENTS OF THE UNIVERSITY OF CALIFORNIA, priority 2022, published 2026)", "key": {"[1]": {"system": "mESCs", "assay": "NMP induction from mESCs with bFGF and CHIR (Sox2/T expression)", "format": "cell-based, mouse", "conditions": "day 2 (48 hr bFGF alone) / day 3 (further 24 hr bFGF and CHIR)", "description": "The mouse ESC line, MM13, was routinely maintained in ES cell media (DMEM+20% FBS) with 100u/ml of mouse leukocyte inducing factor (LIF). […] To prepare cells for the differentiation, ESC colonies were dissociated with 0.25% trypsin and plated on gelatin coated plates at 1:10 dilution to reduce MEF transfer. Cells cultured on gelatin coated plates and allowed to proliferate for 1-2 days. To initiate differentiation, cells were plated on 0.1% gelatin coated 24-well CellBIND dishes (Corning) at 20,000 cells/ml density in 0.5 ml/well N2/B27 medium that contains 10 ng/ml basic fibroblast growth factor (bFGF). The N2/B27 medium contains 1:1 portions of Advanced Dulbecco's modified Eagle Media (DMEM) F12 (Hyclone) and Neurobasal media (Thermo Fisher Scientific) supplemented with 0.5×N2, 1×B27 supplement (with Vitamin A), 2 mM L-glutamine, 0.1 mM 2-mercaptoethanol (ME), and 1% BSA. On day 1, small colonies of cells can be observed attached to the bottom of the wells. On day 2, cells were supplemented with 10 ng/ml bFGF and 5 μM CHIR99021 for 24 hours to induce a neuromesodermal identity (Gouti et al., 2014). On day 3, media was changed as follows: for protocol 1, cells were exposed to 100 nM RA for 48 hrs. […] At the end of the differentiation, the cultures were fixed for immunohistochemical analysis or lysed to obtain RNA for RNA-Seq or quantitative reverse transcriptase PCR analysis. […]"}, "[2]": {"system": "CHIR-expanded EBs", "assay": "Differentiation of CHIR-expanded EBs on Matrigel (IHC, RT-qPCR at day 10)", "format": "cell-based, mouse", "conditions": "DAPT added", "description": "Embryoid body (EB) differentiation: To induce differentiation, EBs were dissociated into smaller clumps by a 5-7-minute treatment with cold 0.25% Trypsin (Gibco), followed by trituration. Trypsin was neutralized with 1:1 addition of Trypsin inhibitor (Sigma-Aldrich) and cells were pelleted by centrifugation at 1000RPM. Cell pellets were resuspended in N2/B27 medium (without growth factors) and plated onto a Matrigel precoated plate. In our experience, the single cell suspension of 100-150 EBs provided enough cells to seed one 24-well plate. […] At the end of 10 days, multiple neural processes can be visualized by phase contrast microscopy and cultures were either fixed with 4% PFA for immunohistochemistry or lysed to extract RNA in RLT buffer (Qiagen). […] CHIR withdrawal), or DAPT, a pro-differentiation agent (Crawford and Roelink, 2007) (FIG. 7J). […] This strategy was successful at restoring almost all dI identities in cultures taken from EBs both at the earliest passage and at the latest passage assessed (passage 7;"}, "[3]": {"system": "hESCs", "conditions": "added to the cell dissociation media (Watanabe et al., 2007, Pettinato et al., 2015); cited from earlier work"}, "[4]": {"system": "Wnt/β-catenin signaling", "assay": "Inhibition of Wnt/β-catenin signaling during dI differentiation (IHC and RT-qPCR at day 9)", "format": "cell-based, mouse", "description": "The mouse ESC line, MM13, was routinely maintained in ES cell media (DMEM+20% FBS) with 100u/ml of mouse leukocyte inducing factor (LIF). […] To prepare cells for the differentiation, ESC colonies were dissociated with 0.25% trypsin and plated on gelatin coated plates at 1:10 dilution to reduce MEF transfer. Cells cultured on gelatin coated plates and allowed to proliferate for 1-2 days. To initiate differentiation, cells were plated on 0.1% gelatin coated 24-well CellBIND dishes (Corning) at 20,000 cells/ml density in 0.5 ml/well N2/B27 medium that contains 10 ng/ml basic fibroblast growth factor (bFGF). The N2/B27 medium contains 1:1 portions of Advanced Dulbecco's modified Eagle Media (DMEM) F12 (Hyclone) and Neurobasal media (Thermo Fisher Scientific) supplemented with 0.5×N2, 1×B27 supplement (with Vitamin A), 2 mM L-glutamine, 0.1 mM 2-mercaptoethanol (ME), and 1% BSA. On day 1, small colonies of cells can be observed attached to the bottom of the wells. On day 2, cells were supplemented with 10 ng/ml bFGF and 5 μM CHIR99021 for 24 hours to induce a neuromesodermal identity (Gouti et al., 2014). On day 3, media was changed as follows: for protocol 1, cells were exposed to 100 nM RA for 48 hrs. For protocol 2, 10 ng/ml human recombinant BMP4 (Thermo Fisher Scientific) was added concomitantly with 100 nM RA (RA+BMP4) for 48 hrs. For protocol 3, cells were exposed to 100 nM RA for 24 hrs, followed by a pulse of RA+BMP4 for another 24 hours. To induce terminal differentiation in all three conditions, the medium containing growth factors was replaced with basic N2/B27 medium at day 5, and cell allowed to differentiate to day 9. At the end of the differentiation, the cultures were fixed for immunohistochemical analysis or lysed to obtain RNA for RNA-Seq or quantitative reverse transcriptase PCR analysis.\nImmunohistochemistry: For 2d differentiations, adherent cultures were first washed with 1×PBS and fixed with fresh cold 4% PFA for 10 minutes in the well. Following fixation, cultures were washed twice with 1×PBS to remove any remaining PFA. Cells were blocked with 1×PBS with 1% heat inactivated horse serum for 1 hour and primary antibodies are added in the blocking solution for an overnight incubation at 4C. Following washes, species appropriate secondary antibodies (Jackson Immuno Research Laboratories) were added in 1× PBT (PBS+0.1% […]) for 1 hr. The cultures were then washed with 1× PBT to remove traces of secondary antibodies and counterstained with DAPI to stain nuclei. Plates were then imaged on Zeiss LSM800 inverted confocal microscope at 10× magnification.\n(§1) Quantitative (a) RT-PCR analysis: RNA was isolated with RNeasy Mini Kit (Qiagen, cat no. 74104), and converted to cDNA using Superscript IV First Strand Synthesis kit (Thermo Fisher Scientific). qRT-PCR was performed using SYBR Green PCR Master Mix (Applied Biosystems) on Roche 480 Lightcycler (Roche). The relative fold expression was calculated using 2-AACt method of comparing the expression of the target gene with that of the housekeeping gene glyceraldehyde 3-phosphate dehydrogenase (Gapdh). All experiments were repeated at least 2-3 times (technical replicates) from at least two independent differentiations (biological replicates), and data is represented as mean±SEM.\nTo assess the role of canonical Wnt signaling in dI fate specification, we added endo-IWR1 (IWR1e), a small molecule inhibitor which blocks p-catenin function (Chen et al., 2009) to dPs from day 4-6 (FIG. 5A). By day 9, the RA+BMP4 condition robustly induces dlis-dI3s (FIG. 5F-51, 5N-5P)."}, "[5]": {"system": "mESCs-derived NMPs / NPCs", "assay": "Bulk RNA-Seq differential expression and qRT-PCR after RA or RA+BMP4 treatment", "format": "cell-based, mouse", "description": "Bulk-RNA sequencing and data processing: Total cell lysate was obtained in buffer RLT (Qiagen) at different time points from three independent differentiations (biological replicates) conducted parallelly. RNA extraction was performed using RNeasy mini kit (Qiagen) and the quality was determined using Agilent Technologies 2100 Bioanalyzer and only samples with a RIN score >8.0 were sequenced. Stranded libraries were constructed using Universal plus mRNA sequencing kit (NuGEN) and sequenced onto 2 lanes of NovaseqS1 to generate 30 million reads/sample. Obtained reads were aligned to the latest mouse reference genome (mm10) using the STAR spliced read aligner. Pearson correlation and principal component analysis (PCA) was performed to determine the similarities among the samples and replicates. Differentially expressed genes were identified using DESeq and EdgeR package on R platform. The candidate genes were selected using cutoff false discovery rate (FDR <0.05) and log fold change (>2). Differentially expressed gene lists were further subjected to Enrichr, Metascape (Zhou et al., 2019) and DAVID functional annotation tools to identify enriched gene ontology (GO) categories.\nas §1\nWe took advantage of the directed differentiation protocols to investigate the unresolved mechanisms by which RA and BMP direct dI fate specification. To further validate the use of a stem cell model, we first assessed the genetic basis of the fate decisions mediated by RA signaling. During the 24 hr pulse of RA at day 3, Pax3 levels gradually increase, while T expression concomitantly declines (FIG. 12A). […] To identify the transcriptional changes occurring during this first commitment step, we performed bulk RNA-Seq at day 3 (NMP state), day 3.25 (early transcriptional response to RA) and day 4 (dP state1) (FIG. 11B).\nWe hypothesized that the addition of BMP4 to NPCs in dP state1, directs them to a more dorsal dP state, i.e. dP state2 (FIG. 11A). To define the transcriptional changes occurring after BMP4 addition, we performed bulk RNA-Seq at day 4 (dP state1), day 4.25 (early transcriptional response to RA+BMP4) and at day 5 (dP state2) (FIG. 4A). […] 78 genes, out of 411, were common between both time points (FIGS. 4B, 13B). Focusing on these common genes, we identified enriched functional processes using GO analyses. The GO terms included the BMP signaling pathway (FIG. 4C, Table 3), confirming that the analysis identified BMP responsive genes."}, "[6]": {"system": "Wnt-signaling genes", "assay": "RT-qPCR of selected Wnt genes at day 5 (RA±BMP4, Noggin)", "format": "cell-based, mouse", "description": "as §1\nAdditionally, we also found enriched GO terms related to Wnt signaling across three functional categories (FIG. 4C). […] (FIGS. 4D, 4E, 12B). Selected Wnt-signaling genes were further assessed in a qPCR analysis of day 5 NMPs to validate whether they are BMP4-responsive."}, "[7]": {"conditions": "inhibitor added to RA+BMP4 (protocol 3) from day 4, 48 hours, day 9"}}, "note": "Entries after “also recorded” stand apart in the source; their conditions may differ."}
{"molecule": "bFGF: human basic fibroblast growth factor", "values": [{"measurement": "Expression of Sox2 and T", "setting": "[1]", "value": "upregulate Sox2 but not T"}]}
{"molecule": "C[C@H](NC(=O)Cc1cc(F)cc(F)c1)C(=O)N[C@H](C(=O)OC(C)(C)C)c1ccccc1", "note": "[DAPT]", "values": [{"measurement": "Tuj1+ neurites", "setting": "[2]; day 10, IHC", "value": "increased sprouting of Tuj^+ neurites; also recorded: modest effect increasing the number of Tuj1+neurites"}, {"measurement": "NeuN and Tubb3 expression compared to DMSO", "setting": "[2]; day 10, RT-qPCR", "value": "did not significantly augment NeuN and Tubb3 expression"}]}
{"molecule": "C[C@@H](N)[C@H]1CC[C@H](C(=O)Nc2ccncc2)CC1", "note": "[Y-27632]", "values": [{"measurement": "apoptosis upon dissociation and EB formation", "setting": "[3]", "value": "significantly inhibit apoptosis and enhance the EB formation"}]}
{"molecule": "Oc1nc(-c2ccc(C(F)(F)F)cc2)nc2c1CSCC2", "note": "[XAV939]", "values": [{"measurement": "dI1 and dI2 differentiation", "setting": "[4]; [7]", "value": "most strongly suppresses the differentiation of the BMP4-dependent dI1/dI2s"}, {"measurement": "dI3 differentiation", "setting": "[4]; [7]", "value": "more modest effect on dI3s"}, {"measurement": "dI4, dI5, dI6 fates", "setting": "[4]; [7]", "value": "increase in the expression of dI4-dI6 specific genes"}, {"measurement": "dP markers Pax3, Pax7, Olig3", "setting": "[4]; inhibitor added to RA+BMP4 condition", "value": "prevents both the suppression of Pax7+dPs and induction of Olig3+dPs"}]}
{"molecule": "BMP4: human recombinant bone morphogenetic protein 4 (protein, UniProt P12644 293-408, looked up) Bone morphogenetic protein 4: SPKHHSQRARKKNKNCRRHSLYVDFSDVGWNDWIVAPPGYQAFYCHGDCPFPLADHLNSTNHAIVQTLVNSVNSSIPKACCVPTELSAISMLYLDEYDKVVLKNYQEMVVEGCGCR", "values": [{"measurement": "upregulated genes common between both time points", "setting": "[5]; 6 hrs and 24 hrs of BMP4+RA treatment", "value": 78, "unit": "genes"}, {"measurement": "genes upregulated", "setting": "[5]; 6 hrs of BMP4 addition (day 4.25) vs day 4", "value": 106, "unit": "genes"}, {"measurement": "genes upregulated", "setting": "[5]; 24 hrs of BMP4 exposure (day 5) vs day 4", "value": 305, "unit": "genes"}, {"measurement": "expression of selected Wnt-signaling genes", "setting": "[6]; day 5, addition of BMP4 compared to RA alone", "value": "expression of all genes tested significantly increased"}]}
{"molecule": "Noggin: a BMP signaling inhibitor (protein, UniProt Q13253 28-232, looked up) Noggin: QHYLHIRPAPSDNLPLVDLIEHPDPIFDPKEKDLNETLLRSLLGGHYDPGFMATSPPEDRPGGGGGAAGGAEDLAELDQLLRQRPSGAMPSEIKGLEFSEGLAQGKKQRLSKKLRRKLQMWLWSQTFCPVLYAWNDLGSRFWPRYVKVGSCFSKRSCSVPEGMVCKPSKSVHLTVLRWRCQRRGGQRCGWIPIQYPIISECKCSC", "values": [{"measurement": "upregulation of Wnt expression", "setting": "[6]; Noggin concomitantly added with BMP4 on day 4", "value": "upregulation of Wnt expression was suppressed"}]}
